Laboratory results reported in US6355799B1, “Substituted benzene compounds, process for their preparation, and herbicidal and defoliant compositions containing them” (ISK Americas Incorporated, priority 1997, dated 2002).

How the values were obtained:
Assay type in all cases: in vivo
[1] = system: redroot pigweed (Amaranthus retroflexus, AMARE); assay: Pre-emerge test, greenhouse herbicide activity screening; conditions: pre-emerge, rated 14 days after application, 0 = no damage, 100 = complete death
Outline: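 Plants grown in 10 cm pots of sandy loam mix received acetone-dissolved compounds through a moving flat-fan nozzle. Doses ranged from 15 to 1000 g ai/ha. Pre-emerge pots were seeded one day earlier, post-emerge pots 8–21 days earlier. Fourteen days on, each pot was graded 0–100 for damage.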

[2] = system: sicklepod (Cassia obtusifolia, CASOB); assay: as above; conditions: pre-emerge, rated 14 days after application, 0 = no damage, 100 = complete death
Outline: (§1)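 Compounds in acetone were track-sprayed at 15–1000 g ai/ha: pre-emergence onto soil sown the previous day, then top-watered to incorporate and later bottom-watered; post-emergence onto 2–3 leaf plants with 0.25% v/v surfactant, bottom-watered only. Ratings on a 0–100 phytotoxicity scale were taken at day 14.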

[3] = system: velvetleaf (Abutilon theophrasti, ABUTH); assay: as above; conditions: pre-emerge, rated 14 days after application, 0 = no damage, 100 = complete death
Outline: as §1

[4] = system: lambsquarters (Chenopodium album, CHEAL); assay: as above; conditions: pre-emerge, rated 14 days after application, 0 = no damage, 100 = complete death
Outline: as §1

[5] = system: green foxtail (Setaria viridis, SETVI); assay: as above; conditions: pre-emerge, rated 14 days after application, 0 = no damage, 100 = complete death
Outline: as §1

[6] = system: barnyardgrass (Echinochloa crus-galli, ECHCG); assay: as above; conditions: pre-emerge, rated 14 days after application, 0 = no damage, 100 = complete death
Outline: as §1

[7] = system: ivyleaf morningglory (Ipomoea hederacea, IPOHE); assay: as above; conditions: pre-emerge, rated 14 days after application, 0 = no damage, 100 = complete death
Outline: as §1

[8] = system: johnsongrass (Sorghum halepense, SORHA); assay: as above; conditions: pre-emerge, rated 14 days after application, 0 = no damage, 100 = complete death
Outline: as §1

[9] = system: large crabgrass (Digitaria sanguinalis, DIGSA); assay: as above; conditions: pre-emerge, rated 14 days after application, 0 = no damage, 100 = complete death
Outline: as §1

[10] = system: sicklepod (Cassia obtusifolia, CASOB); assay: Post-emerge test, greenhouse herbicide activity screening; conditions: phytotoxicity rating 0-100 (0 no damage, 100 complete death), 14 days after application
Outline: (§2)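 Compounds in acetone were track-sprayed at 187 l/ha, 15–1000 g ai/ha, onto sandy loam pots. Pre-emerge seeds were sown one day before spraying, with surface watering afterwards. Post-emerge plants were at the 2–3 leaf stage and sprayed with 0.25% v/v non-ionic surfactant. Injury was rated 0–100 at 14 days.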

[11] = system: velvetleaf (Abutilon theophrasti, ABUTH); assay: as above; conditions: phytotoxicity rating 0-100 (0 no damage, 100 complete death), 14 days after application
Outline: as §2

[12] = system: lambsquarters (Chenopodium album, CHEAL); assay: as above; conditions: phytotoxicity rating 0-100 (0 no damage, 100 complete death), 14 days after application
Outline: as §2

[13] = system: green foxtail (Setaria viridis, SETVI); assay: as above; conditions: phytotoxicity rating 0-100 (0 no damage, 100 complete death), 14 days after application
Outline: as §2

[14] = system: barnyardgrass (Echinochloa crus-galli, ECHCG); assay: as above; conditions: phytotoxicity rating 0-100 (0 no damage, 100 complete death), 14 days after application
Outline: as §2

[15] = system: ivyleaf morningglory (Ipomoea hederacea, IPOHE); assay: as above; conditions: phytotoxicity rating 0-100 (0 no damage, 100 complete death), 14 days after application
Outline: as §2

[16] = system: redroot pigweed (Amaranthus retroflexus, AMARE); assay: as above; conditions: phytotoxicity rating 0-100 (0 no damage, 100 complete death), 14 days after application
Outline: as §2

[17] = system: johnsongrass (Sorghum halepense, SORHA); assay: as above; conditions: phytotoxicity rating 0-100 (0 no damage, 100 complete death), 14 days after application
Outline: as §2

[18] = system: common ragweed (Ambrosia artemisizfolia L., AMBEL); assay: as above; conditions: phytotoxicity rating 0-100 (0 no damage, 100 complete death), 14 days after application
Outline: as §2

[19] = system: large crabgrass (Digitaria sanguinalis, DIGSA); assay: as above; conditions: phytotoxicity rating 0-100 (0 no damage, 100 complete death), 14 days after application
Outline: as §2

[20] = system: upland rice (Oryza sp., var. Tebonnet, RICE); assay: Post-emerge test, crop safety; conditions: phytotoxicity rating 0-100 (0 no damage, 100 complete death), 14 days after application
Outline: (§3)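 Rating: 0–100 visual injury, 14 DAA. Application: acetone, 187 l/ha, 15–1000 g ai/ha, flat-fan track sprayer with nozzle 40–45 cm above soil or canopy. Post-emerge runs used 0.25% v/v surfactant on 2–3 leaf plants.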

[21] = system: field corn (Zea mays L., var. Dekalb 535, CORN); assay: Post-emerge test, crop safety; conditions: phytotoxicity rating 0-100 (0 no damage, 100 complete death), 14 days after application
Outline: as §3

[22] = system: upland rice (Oryza sp., var. Tebonnet, RICE); assay: Pre-emerge test, crop safety; conditions: pre-emerge, rated 14 days after application, 0 = no damage, 100 = complete death
Outline: (§4)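 Visual ratings on a 0-100 scale (0 no damage, 100 all plants dead) were taken at 14 days after treatment. Rates of 15-1000 g ai/ha in acetone, 187 l/ha, were sprayed onto soil one day after planting (pre-emerge) or onto 2-3 leaf plants with 0.25% v/v surfactant (post-emerge).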

[23] = system: field corn (Zea mays L., var. Dekalb 535, CORN); assay: Pre-emerge test, crop safety; conditions: pre-emerge, rated 14 days after application, 0 = no damage, 100 = complete death
Outline: as §4

SMILES: CC(C)Oc1c(Cl)cc(F)c(-n2c(=O)cc(C(F)(F)F)n(C)c2=O)c1N [Compound 1-63]
- Pre-emerge Herbicidal Activity AMARE (phytotoxicity rating, scale 0-100) ([1]; 63 g ai/ha): 100
- Pre-emerge Herbicidal Activity AMARE (phytotoxicity rating, scale 0-100) ([1]; 250 g ai/ha): 100
- Pre-emerge Herbicidal Activity CASOB (phytotoxicity rating, scale 0-100) ([2]; 63 g ai/ha): 20
- Pre-emerge Herbicidal Activity CASOB (phytotoxicity rating, scale 0-100) ([2]; 250 g ai/ha): 90
- Pre-emerge Herbicidal Activity ABUTH (phytotoxicity rating, scale 0-100) ([3]; 63 g ai/ha): 100
- Pre-emerge Herbicidal Activity ABUTH (phytotoxicity rating, scale 0-100) ([3]; 250 g ai/ha): 100
- Pre-emerge Herbicidal Activity CHEAL (phytotoxicity rating, scale 0-100) ([4]; 63 g ai/ha): 100
- Pre-emerge Herbicidal Activity CHEAL (phytotoxicity rating, scale 0-100) ([4]; 250 g ai/ha): 100
- Pre-emerge Herbicidal Activity SETVI (phytotoxicity rating, scale 0-100) ([5]; 63 g ai/ha): 95
- Pre-emerge Herbicidal Activity SETVI (phytotoxicity rating, scale 0-100) ([5]; 250 g ai/ha): 100
- Pre-emerge Herbicidal Activity ECHCG (phytotoxicity rating, scale 0-100) ([6]; 63 g ai/ha): 40
- Pre-emerge Herbicidal Activity ECHCG (phytotoxicity rating, scale 0-100) ([6]; 250 g ai/ha): 100
- Pre-emerge Herbicidal Activity IPOHE (phytotoxicity rating, scale 0-100) ([7]; 63 g ai/ha): 20
- Pre-emerge Herbicidal Activity IPOHE (phytotoxicity rating, scale 0-100) ([7]; 250 g ai/ha): 95
- Pre-emerge Herbicidal Activity SORHA (phytotoxicity rating, scale 0-100) ([8]; 63 g ai/ha): 50
- Pre-emerge Herbicidal Activity SORHA (phytotoxicity rating, scale 0-100) ([8]; 250 g ai/ha): 99
- Pre-emerge Herbicidal Activity DIGSA (phytotoxicity rating, scale 0-100) ([9]; 63 g ai/ha): 80
- Pre-emerge Herbicidal Activity DIGSA (phytotoxicity rating, scale 0-100) ([9]; 250 g ai/ha): 100
- Post-emerge Herbicidal Activity CASOB ([10]; 63 g ai/ha): 0
- Post-emerge Herbicidal Activity CASOB ([10]; 250 g ai/ha): 0
- Post-emerge Herbicidal Activity ABUTH ([11]; 63 g ai/ha): 70
- Post-emerge Herbicidal Activity ABUTH ([11]; 250 g ai/ha): 100
- Post-emerge Herbicidal Activity CHEAL ([12]; 63 g ai/ha): 20
- Post-emerge Herbicidal Activity CHEAL ([12]; 250 g ai/ha): 50
- Post-emerge Herbicidal Activity SETVI ([13]; 63 g ai/ha): 0
- Post-emerge Herbicidal Activity SETVI ([13]; 250 g ai/ha): 20
- Post-emerge Herbicidal Activity ECHCG ([14]; 63 g ai/ha): 0
- Post-emerge Herbicidal Activity ECHCG ([14]; 250 g ai/ha): 30
- Post-emerge Herbicidal Activity IPOHE ([15]; 63 g ai/ha): 95
- Post-emerge Herbicidal Activity IPOHE ([15]; 250 g ai/ha): 90
- Post-emerge Herbicidal Activity AMARE ([16]; 63 g ai/ha): 10
- Post-emerge Herbicidal Activity AMARE ([16]; 250 g ai/ha): 10
- Post-emerge Herbicidal Activity SORHA ([17]; 63 g ai/ha): 0
- Post-emerge Herbicidal Activity SORHA ([17]; 250 g ai/ha): 0
- Post-emerge Herbicidal Activity AMBEL ([18]; 63 g ai/ha): 0
- Post-emerge Herbicidal Activity AMBEL ([18]; 250 g ai/ha): 50
- Post-emerge Herbicidal Activity DIGSA ([19]; 63 g ai/ha): 0
- Post-emerge Herbicidal Activity DIGSA ([19]; 250 g ai/ha): 0
- Post-emerge Herbicidal Activity RICE (crop damage) ([20]; 63 g ai/ha): 10
- Post-emerge Herbicidal Activity RICE (crop damage) ([20]; 250 g ai/ha): 40
- Post-emerge Herbicidal Activity CORN (crop damage) ([21]; 63 g ai/ha): 0
- Post-emerge Herbicidal Activity CORN (crop damage) ([21]; 250 g ai/ha): 0
- Pre-emerge crop damage RICE (phytotoxicity rating, scale 0-100) ([22]; 63 g ai/ha): 80
- Pre-emerge crop damage RICE (phytotoxicity rating, scale 0-100) ([22]; 250 g ai/ha): 95
- Pre-emerge crop damage CORN (phytotoxicity rating, scale 0-100) ([23]; 63 g ai/ha): 10
- Pre-emerge crop damage CORN (phytotoxicity rating, scale 0-100) ([23]; 250 g ai/ha): 90
